Results: ChEMBL document CHEMBL1201862, “PubChem BioAssay data set” (2004)
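48-hour exposure; five concentrations; linearly interpolated endpoints. GI50 = concentration required for 50% inhibition of growth.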 Active and inactive are the calls of the source. Rule as the data show it: active = GI50 up to about 1.1 µM and inactive = higher.

What was measured:
Assay in all cases: NCI tumour cell line growth inhibition, 48 h
SK-MEL-28 = test system: SK-MEL-28
NCI-H226 = test system: NCI-H226
HCT-116 = test system: HCT-116
SR = test system: SR
786-0 = test system: 786-0
SNB-75 = test system: SNB-75
NCI-H522 = test system: NCI-H522
KM-20L2 = test system: KM-20L2
IGROV-1 = test system: IGROV-1
RXF 393 = test system: RXF 393
NCI/ADR-RES = test system: NCI/ADR-RES
MCF7 = test system: MCF7

Measured: GI50

Cc1c(/C=N/NC(=O)c2ccccc2O)c(=O)n(-c2ccccc2)n1C
inactive: SK-MEL-28 > 100 µM | NCI-H226 > 100 µM | HCT-116 64.9 µM | SR 45.8 µM | 786-0 > 100 µM | SNB-75 > 100 µM | NCI-H522 > 100 µM | KM-20L2 > 100 µM | IGROV-1 > 100 µM | RXF 393 49.2 µM

O=c1cc(O)ccn1C1C=C(CO)C(O)C1O (configuration not stated)
inactive: SK-MEL-28 > 625 µM | NCI-H226 > 625 µM | NCI/ADR-RES > 625 µM | HCT-116 263 µM | SNB-75 > 625 µM | KM-20L2 > 625 µM | IGROV-1 > 625 µM | RXF 393 > 625 µM | MCF7 > 625 µM

CCCCCNC(=O)c1c(O)[nH]c(=S)[nH]c1=O
inactive: SK-MEL-28 > 100 µM | NCI-H226 > 100 µM | HCT-116 > 100 µM | SR > 100 µM | 786-0 > 100 µM | SNB-75 > 100 µM | NCI-H522 > 100 µM | KM-20L2 > 100 µM | IGROV-1 > 100 µM

CC(=O)C(/N=N\C1CCC(S(=O)(=O)NB2N=CS2)CC1)C(=O)Nc1ccccc1C (configuration not stated)
inactive: SK-MEL-28 15.4 µM | NCI-H226 14.9 µM | HCT-116 13.5 µM | SR 43.7 µM | SNB-75 17.5 µM | NCI-H522 15.3 µM | KM-20L2 15.9 µM | IGROV-1 17.4 µM | RXF 393 21 µM
